Measurements as given in article PMC7539967, “The Plasmodium falciparum eIK1 kinase (PfeIK1) is central for melatonin synchronization in the human malaria parasite. Melatotosil blocks melatonin action on parasite cell cycle” (Journal of Pineal Research, 2020).

What was measured:
[1] = system: Plasmodium falciparum 3D7; assay: Effect of indole compounds in parasitemia (48 h), 3D7; assay type: cell-based; conditions: 3D7, 100 nM melatonin
Description: Red blood cells infected (iRBC) with 3D7 or PfeIK1^‐ (iRBC) with 1% initial parasitemia and 2% hematocrit were incubated with 500 nM of the synthetic indole compounds or 100 nM Melatonin for 48 hours at 37°C under mixture of gases. ^12 The control group received 0.0013% of solvent dimethyl sulfoxide (DMSO).
After 48 hours, iRBC were double‐stained ^34 with nucleic acid marker SYBR Green I (1X) and mitochondria marker, based on membrane potential, MitoTracker Deep Red (50 nM), and incubated for 20 minutes at 37°C.
Final parasitemia was obtained by flow cytometer using an Accuri C6 flow cytometer (Becton Dickinson), collecting 10^4 cells. Parasitemia was determined by dot plots using FlowJo 5 software.

[2] = system: pfeik1 gene expression in P. falciparum 3D7; assay: Quantitative real-time PCR of pfeik1 expression; assay type: cell-based, Plasmodium falciparum; conditions: 100 nM melatonin, 4 h
Description: For these experiments, P. falciparum 3D7 culture was synchronized with 5% sorbitol and parasites collected in the three stages: ring (14 hours); trophozoite (30 hours); and schizont (44 hours), at 4% parasitemia. Parasites were treated with 100 nM Melatonin or 0.00005% ethanol (control) and left for 4 hours before RNA extraction with Trizol (Invitrogen). RNA purified with ionic exchange columns with DNAse using RNAse‐free DNAse set (Qiagen) and RNeasy Mini Kit (Qiagen) and quantified in a UV‐Vis NanoDrop 2000c (Thermo Scientific). Three independent experiments were performed in triplicates.
cDNA syntheses were performed using random primers and Superscript II reverse transcriptase (Invitrogen) according to the manufacturer’s protocol. SYBR Green (Applied Biosystems) was used in quantitative real‐time PCR on a 7300 Real‐Time PCR System (Applied Biosystems). Amplification was carried out as follow: on step 50°C for 2 min and 95°C for 10 min for enzyme activation followed by 40 cycles of 95°C for 0.15 min for denaturation and 60°C for 1 min for annealing/extension. The primers used were as follows: PF14_0423‐Fwd […] and PF14_0423‐Rvs […].
Changes in relative expression were determined by 2^‐ΔΔCt or transforming the threshold cycle in absolute number of mRNA. […]

Structure (SMILES): COc1ccc2[nH]cc(CCNC(C)=O)c2c1 [melatonin, N‐acetyl‐ 5‐methoxytryptamine]
- increase in parasitemia [1]: approximately 10%
- parasitemia normalized to control, hormone only [1]: 110%
- decrease in pfeik1 expression compared to control ([2]; ring stage): 40%
- pfeik1 expression vs solvent ([2]; trophozoite and schizont stages): no significant difference
